These results are taken from patent US8815878B1, “Spiro hemiaminals for treating viral diseases” (NovaDrug, LLC, priority 2010, dated 2014).

This series has as its system Huh7-1 cells. Nature of the series: HCV Induced Cytotoxicity Test (Promega CytoTox 96 LDH release). It is filed as cell-based, human. The settings on record: 5 day HCV-infected Huh7-1 cultures. As for the experimental part:
Initially, 6×10^3 Huh7-1 cells are incubated overnight in each well of collagen-coated BioCoat 96-well plates (BD Biosciences, Bedford, Mass.) in 0.2 ml 10% medium composed of Dulbecco's modified Eagle's medium supplemented with 10% fetal bovine serum. Subsequently, at 2 day intervals, the cultures are replenished with fresh 0.2 ml 10% medium. After the cultures become confluent, they continue to be replenished at 2 day intervals with fresh 0.2 ml 10% medium that also includes 1% dimethyl sulfoxide (DMSO). After 20 days of these replenishments, the Huh7-1 cultures are incubated with fresh 1% medium (same as 10% medium except that the serum level is 1%) containing HCV at a multiplicity of infection (MOI) of 0.05 focus forming units (ffu)/cell. The HCV (JFH-1 wt Huh7) stock titer is 1.5×10^5 ffu/ml. The next day (day 1 post-infection) and 2 days later (day 3 post-infection) the media are replenished with fresh 1% medium containing the test compounds dissolved in DMSO. On the 5th day of treatment with the compounds, cell lysates are collected for RNA isolation and Real Time-quantitative Reverse Transcription Polymerase Chain Reaction (RT-qPCR) and culture media are collected for cytotoxicity analysis.
HCV Induced Cytotoxicity Test. To determine whether the compounds described herein are cytotoxic at the tested doses used, the Promega CytoTox 96 Non-Radioactive Cytotoxicity Assay kit (Promega, Madison, Wis.) is used. This kit measures lactate dehydrogenase (LDH) levels in the culture medium, which is released from cells due to plasma membrane integrity loss or necrosis. For this test, 50 uL samples of culture medium are collected from the same 5 day cultures used to examine the RNA levels shown previously.

Where [1] appears, read: concentration ranges of 2.5 to 20 μM.

Each structure is given as a SMILES string.

As for `Cc1ccc2occ(CN3C[C@H]4CC[C@]5(NC(=O)c6ccccc6N5)[C@H]4C3)c(=O)c2c1` [Example 3], the “toxicity in the assay (LDH levels in the culture medium)” value (shortened to “toxicity in the assay”) (at 25 μM) is listed as “limited toxicity” and the “toxicity in the assay” value under setting [1] is given as “little to no toxicity”.

Regarding `O=C1N[C@]2(CC[C@@H]3CN(Cc4cnc(N5CCOCC5)nc4)C[C@@H]32)Nc2ccccc21` [Example 4], the “toxicity in the assay” value under setting [1] was “little to no toxicity”.

Regarding `O=C1N[C@]2(CC[C@@H]3CN(Cc4cc5c(cc4Cl)OCO5)C[C@@H]32)Nc2ccccc21` [Example 6], the “toxicity in the assay” value (at 25 μM) is recorded as “limited toxicity” and the “toxicity in the assay” value under setting [1] was “little to no toxicity”.
